Experimental data published in US20220340597A1, “HEXAHYDRO-1H-PYRAZINO[1,2-A]PYRAZINE COMPOUNDS FOR THE TREATMENT OF AUTOIMMUNE DISEASE” (Hoffmann-La Roche Inc., priority 2019, published 2022).

Columns and labels:
[1] = target: T1, hERG channel (Homo sapiens, UniProt Q12809); experiment: hERG channel inhibition assay (patch-clamp, CHOhERG cells); format: cell-based; conditions: for IC50 / IC20: CHOhERG cells, whole-cell patch-clamp; for IC20: human, CHO cells stably expressing hERG (CHOhERG); for hERG IC20/TLR7 IC50 / hERG IC20/TLR8 IC50 / hERG IC20/TLR9 IC50: safety ratio
T1 construct: expressed in transfected cells; host or cells: CHO (Chinese hamster ovary), CHOhERG
Description: hERG Channel Inhibition Assay:
The hERG K^+ channels were cloned in humans and stably expressed in a CHO (Chinese hamster ovary) cell line. CHOhERG cells were used for patch-clamp (voltage-clamp, whole-cell) experiments. Cells were stimulated by a voltage pattern to activate hERG channels and conduct IKhERG currents (rapid delayed outward rectifier potassium current of the hERG channel). After the cells were stabilized for a few minutes, the amplitude and kinetics of IKhERG were recorded at a stimulation frequency of 0.1 Hz (6 bpm). Thereafter, the test compound was added to the preparation at increasing concentrations. For each concentration, an attempt was made to reach a steady-state effect, usually, this was achieved within 3-10 min at which time the next highest concentration was applied. The amplitude and kinetics of IKhERG are recorded in each concentration of the drug which were compared to the control values (taken as 100%). (references: Redfern W S, Carlsson L, Davis A S, Lynch W G, MacKenzie I, Palethorpe S, Siegl P K, Strang I, Sullivan A T, Wallis R, Camm A J, Hammond T G. 2003; Relationships between preclinical cardiac electrophysiology, clinical QT interval prolongation and torsade de pointes for a broad range of drugs: evidence for a provisional safety margin in drug development. Cardiovasc. Res. 58:32-45, Sanguinetti M C, Tristani-Firouzi M. 2006; hERG potassium channels and cardiac arrhythmia. Nature 440:463-469, Webster R, Leishman D, Walker D. 2002; Towards a drug concentration effect relationship for QT prolongation and torsades de pointes. Curr. Opin. Drug Discov. Devel. 5:116-26).
The calculation of hERG IC20/TLR7/8/9 IC50 below serves as early selectivity index to assess hERG liability.

[2] = target: T2, human TLR9 (Homo sapiens, UniProt Q9NR96); experiment: HEK293-Blue-hTLR-9 cells assay; format: cell-based; conditions: HEK293-Blue-hTLR9 cells, ODN2006 stimulation, 20 hrs, SEAP reporter; read-out: HEK/hTLR9 IC50
T2 construct: host or cells: HEK293 (HEK-Blue hTLR9)
T2 sequence (Q9NR96 26-1032): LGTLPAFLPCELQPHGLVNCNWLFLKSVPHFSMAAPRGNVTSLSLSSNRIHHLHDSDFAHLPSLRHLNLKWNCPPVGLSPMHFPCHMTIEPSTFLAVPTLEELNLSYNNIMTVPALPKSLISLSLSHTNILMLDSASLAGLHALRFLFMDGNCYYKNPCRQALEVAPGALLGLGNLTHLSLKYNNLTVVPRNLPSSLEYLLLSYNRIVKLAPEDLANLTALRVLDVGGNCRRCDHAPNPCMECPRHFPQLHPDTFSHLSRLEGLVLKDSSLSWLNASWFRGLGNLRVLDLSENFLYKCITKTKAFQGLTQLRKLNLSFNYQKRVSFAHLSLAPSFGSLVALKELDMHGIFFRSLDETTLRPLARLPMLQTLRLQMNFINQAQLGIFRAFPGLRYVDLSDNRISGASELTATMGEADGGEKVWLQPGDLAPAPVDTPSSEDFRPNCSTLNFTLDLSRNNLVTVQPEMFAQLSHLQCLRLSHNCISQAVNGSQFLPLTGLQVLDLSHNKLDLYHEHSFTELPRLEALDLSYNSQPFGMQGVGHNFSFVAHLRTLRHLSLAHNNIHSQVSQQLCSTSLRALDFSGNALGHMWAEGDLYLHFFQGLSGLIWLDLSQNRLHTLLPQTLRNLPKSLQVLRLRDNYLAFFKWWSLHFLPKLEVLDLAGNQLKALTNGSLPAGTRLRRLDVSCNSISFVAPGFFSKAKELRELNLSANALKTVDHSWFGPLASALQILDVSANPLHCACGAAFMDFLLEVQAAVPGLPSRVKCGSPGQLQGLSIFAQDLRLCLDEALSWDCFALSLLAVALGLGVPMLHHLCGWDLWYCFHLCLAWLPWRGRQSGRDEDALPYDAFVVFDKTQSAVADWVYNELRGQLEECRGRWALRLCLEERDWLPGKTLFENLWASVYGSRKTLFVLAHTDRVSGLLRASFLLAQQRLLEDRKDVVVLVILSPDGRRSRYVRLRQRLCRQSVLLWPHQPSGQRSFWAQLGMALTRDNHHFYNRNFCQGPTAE

T1 sequence (Q12809 whole entry): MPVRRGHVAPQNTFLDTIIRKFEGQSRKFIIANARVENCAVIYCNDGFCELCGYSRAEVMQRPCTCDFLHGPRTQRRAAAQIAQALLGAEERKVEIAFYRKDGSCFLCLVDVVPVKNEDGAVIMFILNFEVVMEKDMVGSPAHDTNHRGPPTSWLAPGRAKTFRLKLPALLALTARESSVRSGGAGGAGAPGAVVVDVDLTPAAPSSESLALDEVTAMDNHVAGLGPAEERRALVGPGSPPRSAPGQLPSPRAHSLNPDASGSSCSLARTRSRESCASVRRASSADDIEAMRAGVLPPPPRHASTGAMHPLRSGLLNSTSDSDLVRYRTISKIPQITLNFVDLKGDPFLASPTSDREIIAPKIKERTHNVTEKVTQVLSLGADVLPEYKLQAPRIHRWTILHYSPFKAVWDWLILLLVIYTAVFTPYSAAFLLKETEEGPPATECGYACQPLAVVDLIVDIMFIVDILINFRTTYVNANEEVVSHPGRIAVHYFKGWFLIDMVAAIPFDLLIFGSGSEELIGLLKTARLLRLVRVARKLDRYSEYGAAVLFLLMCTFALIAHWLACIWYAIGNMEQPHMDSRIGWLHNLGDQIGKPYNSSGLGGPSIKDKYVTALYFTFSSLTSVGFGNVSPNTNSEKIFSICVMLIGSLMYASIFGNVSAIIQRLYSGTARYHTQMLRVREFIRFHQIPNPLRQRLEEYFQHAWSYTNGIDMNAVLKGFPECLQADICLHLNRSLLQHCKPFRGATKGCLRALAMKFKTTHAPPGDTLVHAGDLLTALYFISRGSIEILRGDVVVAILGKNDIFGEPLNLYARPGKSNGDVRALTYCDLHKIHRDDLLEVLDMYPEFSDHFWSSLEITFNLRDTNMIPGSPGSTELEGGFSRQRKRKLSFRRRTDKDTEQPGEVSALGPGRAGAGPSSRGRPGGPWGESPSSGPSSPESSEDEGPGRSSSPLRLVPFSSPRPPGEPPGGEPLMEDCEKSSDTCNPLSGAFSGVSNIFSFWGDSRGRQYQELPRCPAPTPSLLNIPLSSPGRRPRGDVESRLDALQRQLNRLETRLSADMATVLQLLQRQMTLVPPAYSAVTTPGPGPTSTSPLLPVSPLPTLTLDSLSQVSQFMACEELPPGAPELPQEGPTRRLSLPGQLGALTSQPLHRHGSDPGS

SMILES	IC50 [2] [µM]	IC50 [1] [µM]	IC20 [1] [µM]	hERG IC20/TLR7 IC50 [1]	hERG IC20/TLR8 IC50 [1]	hERG IC20/TLR9 IC50 [1]
C[C@@H]1CN(c2ccc(C#N)c3ncccc23)C[C@@H]2CN(c3cccc4c3CNC4)CCN21 [Example 9, 5-[(4R,9aS)-8-isoindolin-4-yl-4-methyl-3,4,6,7,9,9a-hexahydro-1H-pyrazino[1,2-a]pyrazin-2-yl]quinoline-8-carbonitrile]	0.079	> 20	5.17	1723	5170	65
C[C@@H]1CN(c2ccc(C#N)c3ncccc23)C[C@@H]2CN(CCc3ccc(N4CC5(CN(C)C5)C4)nc3)CCN21 [Example 22, 5-[(4R,9aS)-4-methyl-8-[2-[6-(6-methyl-2,6-diazaspiro[3.3]heptan-2-yl)-3-pyridyl]ethyl]-3,4,6,7,9,9a-hexahydro-1H-pyrazino[1,2-a]pyrazin-2-yl]quinoline-8-carbonitrile]	0.047	> 20	> 10	>385	>172	>213
CO[C@H]1CN(c2ccc(CCN3CCN4[C@@H](C3)CN(c3ccc(C#N)c5ncccc35)C[C@H]4C)cn2)C[C@@H]1N [Example 25, 5-[(4R,9aS)-8-[2-[6-[(3S,4S)-3-amino-4-methoxy-pyrrolidin-1-yl]-3-pyridyl]ethyl]-4-methyl-3,4,6,7,9,9a-hexahydro-1H-pyrazino[1,2-a]pyrazin-2-yl]quinoline-8-carbonitrile]	0.064	> 20	> 10	>769	>400	>156
C[C@@H]1CN(c2ccc(C#N)c3ncccc23)C[C@@H]2CN(c3nccc(N4CCNCC4)n3)CCN21 [Example 30, 5-[(4R,9aR)-4-methyl-8-(4-piperazin-1-ylpyrimidin-2-yl)-3,4,6,7,9,9a-hexahydro-1H-pyrazino[1,2-a]pyrazin-2-yl]quinoline-8-carbonitrile]	0.072	> 10	4.53	283	216	63
CO[C@@H]1CN(c2nccc(N3CCN4[C@@H](C3)CN(c3ccc(C#N)c5ncccc35)C[C@H]4C)n2)C[C@H]1N [Example 36, 5-[(4R,9aR)-8-[2-[(3R,4R)-3-amino-4-methoxy-pyrrolidin-1-yl]pyrimidin-4-yl]-4-methyl-3,4,6,7,9,9a-hexahydro-1H-pyrazino[1,2-a]pyrazin-2-yl]quinoline-8-carbonitrile]	0.068	> 20	5.6	431	373	82
CO[C@@H]1CN(c2ccnc(N3CCN4[C@@H](C3)CN(c3ccc(C#N)c5ncccc35)C[C@H]4C)n2)C[C@H]1N [Example 37, 5-[(4R,9aR)-8-[4-[(3R,4R)-3-amino-4-methoxy-pyrrolidin-1-yl]pyrimidin-2-yl]-4-methyl-3,4,6,7,9,9a-hexahydro-1H-pyrazino[1,2-a]pyrazin-2-yl]quinoline-8-carbonitrile]	0.062	> 10	4.5	214	173	73
Cc1cc(N2CCNCC2)ncc1N1CCN2CCN(c3ccc(C#N)c4ncccc34)CC2C1 (stereo not drawn) [Example 38, 5-[2-(4-methyl-6-piperazin-1-yl-3-pyridyl)-3,4,6,7,9,9a-hexahydro-1H-pyrazino[1,2-a]pyrazin-8-yl]quinoline-8-carbonitrile]	0.093	> 20	> 10	>5000	>1250	>108
C[C@@H]1CN(c2ccc(C#N)c3ncccc23)C[C@@H]2CN(c3nccc(N4CC(N)C4)n3)CCN21 [Example 39, 5-[(4R,9aR)-8-[4-(3-aminoazetidin-1-yl)pyrimidin-2-yl]-4-methyl-3,4,6,7,9,9a-hexahydro-1H-pyrazino[1,2-a]pyrazin-2-yl]quinoline-8-carbonitrile]	0.095	> 10	5	238	294	53

The next lines start with results.

IC50 [2] [µM]	SMILES	IC50 [1] [µM]	IC20 [1] [µM]	hERG IC20/TLR7 IC50 [1]	hERG IC20/TLR8 IC50 [1]	hERG IC20/TLR9 IC50 [1]
< 0.032	C[C@@H]1CN(c2ccc(C#N)c3ncccc23)C[C@@H]2CN(Cc3ccc4c(c3)CNCC4)CCN21 [Example 5, 5-[(4R,9aS)-4-methyl-8-(1,2,3,4-tetrahydroisoquinolin-7-ylmethyl)-3,4,6,7,9,9a-hexahydro-1H-pyrazino[1,2-a]pyrazin-2-yl]quinoline-8-carbonitrile]	> 20	> 10	>588	>833	>313
0.041	C[C@@H]1CN(c2ccc(C#N)c3ncccc23)C[C@@H]2CN(Cc3ccc(N4CCNCC4)nc3)CCN21 [Example 8, 5-[(4R,9aS)-4-methyl-8-[(6-piperazin-1-yl-3-pyridyl)methyl]-3,4,6,7,9,9a-hexahydro-1H-pyrazino[1,2-a]pyrazin-2-yl]quinoline-8-carbonitrile]	> 20	8.63	392	166	210
0.047	CO[C@@H]1CN(c2ccc(CCN3CCN4[C@@H](C3)CN(c3ccc(C#N)c5ncccc35)C[C@H]4C)cn2)C[C@H]1N [Example 12, 5-[(4R,9aS)-8-[2-[6-[(3R,4R)-3-amino-4-methoxy-pyrrolidin-1-yl]-3-pyridyl]ethyl]-4-methyl-3,4,6,7,9,9a-hexahydro-1H-pyrazino[1,2-a]pyrazin-2-yl]quinoline-8-carbonitrile]	> 20	> 10	>833	>714	>213
0.042	C[C@@H]1CN(c2ccc(C#N)c3ncccc23)C[C@@H]2CN(c3cc(N4CCNCC4)ccn3)CCN21 [Example 34, 5-[(4R,9aR)-4-methyl-8-(4-piperazin-1-yl-2-pyridyl)-3,4,6,7,9,9a-hexahydro-1H-pyrazino[1,2-a]pyrazin-2-yl]quinoline-8-carbonitrile]	> 10	4.74	237	339	113
0.045	C[C@@H]1CN(c2ccc(C#N)c3ncccc23)C[C@@H]2CN(c3ccnc(N4CC(N)C4)c3)CCN21 [Example 41, 5-[(4R,9aS)-8-[2-(3-aminoazetidin-1-yl)-4-pyridyl]-4-methyl-3,4,6,7,9,9a-hexahydro-1H-pyrazino[1,2-a]pyrazin-2-yl]quinoline-8-carbonitrile]	> 20	9.64	275	1377	214
